Test results as given in ChEMBL document CHEMBL2385047, “Synthesis and antifungal evaluation of pentyloxyl-diphenylisoxazoloyl pneumocandins and echinocandins” (Bioorg Med Chem Lett, 2013).
Converted amounts (≈) assume the structure as drawn. Numbered stars: 1 amine (or outer) side, 2 acyl side, 3 side chain; on linkers, the order of the positions; unused ones are H or OH. Bridge positions count the residues as written; N and C are the ends. Square brackets hold non-standard residues; d marks the D form. Peptide text beside a SMILES is read from it. * marks the point of attachment. Orn(4R-OH,5R-OH) = O=C([C@H](C[C@@H](O)[C@@H](O)N[*:3])N[*:1])[*:2]; Tetradecanoyl(10R,12S-Me2) = CC[C@H](C)C[C@H](C)CCCCCCCCC(=O)*; hTyr(3S-OH,4S-OH) = N[C@H](C(=O)O)[C@H](O)[C@@H](O)c1ccc(O)cc1; Pro(3S-OH,4S-Me) = C[C@H]1CN[C@H](C(=O)O)[C@H]1O; X1 = CCCCCOc1ccc(-c2cc(-c3ccc(C(=O)*)cc3)no2)cc1; Gln(3R-OH) = NC(=O)C[C@@H](O)[C@H](N)C(=O)O; Pro(3S-OH) = O=C(O)[C@H]1NCC[C@@H]1O; Hyp = O=C(O)[C@@H]1C[C@@H](O)CN1

Experiments:
[1] = system: Meyerozyma guilliermondii; assay: Antifungal activity against wild type Candida guilliermondii CLY308 assessed as growth inhibition after 24 hrs by NCCLS broth microdilution method; type: functional; conditions: CLY308, 24 h; for MIC: read-out: MIC100
Candida albicans [2] = assay: Antifungal activity against Candida albicans NR3 assessed as growth inhibition after 24 hrs by NCCLS broth microdilution method; type: functional; conditions: NR3, 24 h; for MIC: read-out: MIC100
Candida albicans [3] = assay: Antifungal activity against wild type Candida albicans MY1055 assessed as growth inhibition after 24 hrs by NCCLS broth microdilution method; type: functional; conditions: MY1055, 24 h; for MIC: read-out: MIC100
Escherichia coli = assay: Antibacterial activity against Escherichia coli ATCC 25922 assessed as growth inhibition after 24 hrs by NCCLS broth microdilution method; type: functional; conditions: ATCC 25922, 24 h, read-out: MIC100
Staphylococcus aureus = assay: Antibacterial activity against methicillin-sensitive Staphylococcus aureus MB2865 assessed as growth inhibition after 24 hrs by NCCLS broth microdilution method; type: functional; conditions: MB2865, 24 h, read-out: MIC100
Candida albicans [4] = assay: Antifungal activity against Candida albicans CAI4-R1 assessed as growth inhibition after 24 hrs by NCCLS broth microdilution method; type: functional; conditions: CAI4-R1, 24 h; for MIC: read-out: MIC100
Aspergillus fumigatus = assay: Antifungal activity against Aspergillus fumigatus MF5668 caspofungin spontaneous resistance mutant assessed as growth inhibition after 24 hrs by NCCLS broth microdilution method; type: functional; conditions: MF5668, 24 h; for minimal effective concentration: read-out: MEC
Candida albicans [5] = assay: Antifungal activity against Candida albicans MY1055 infected in DBA/2 mouse assessed as reduction of log CFU in kidney administered 30 mins as ip tid post infection measured after 24 hrs; type: functional
Pichia kudriavzevii = assay: Antifungal activity against wild type Candida krusei CLY549 assessed as growth inhibition after 24 hrs by NCCLS broth microdilution method; type: functional; conditions: CLY549, 24 h; for MIC: read-out: MIC100
Nakaseomyces glabratus = assay: Antifungal activity against wild type Candida glabrata MY1381 assessed as growth inhibition after 24 hrs by NCCLS broth microdilution method; type: functional; conditions: MY1381, 24 h; for MIC: read-out: MIC100
Candida albicans [6] = assay: Antifungal activity against wild type Candida albicans MY1055 assessed as growth inhibition after 24 hrs by NCCLS broth microdilution method in presence of human serum; type: functional; conditions: MY1055, 24 h; for MIC: read-out: MIC100
Candida parapsilosis = assay: Antifungal activity against wild type Candida parapsilosis ATCC 22019 assessed as growth inhibition after 24 hrs by NCCLS broth microdilution method; type: functional; conditions: Lodderomyces parapsilosis, ATCC 22019, 24 h; for MIC: read-out: MIC100
Beta-1,3-glucan synthase = biological target: T1, Beta-1,3-glucan synthase (Candida albicans, UniProt O13383); assay: Inhibition of wild type Candida albicans 1,3-beta-D-glucan synthase using UDP[6,3H]-glucose as substrate after 60 mins by liquid scintillation counting analysis
T1 sequence (O13383 whole entry): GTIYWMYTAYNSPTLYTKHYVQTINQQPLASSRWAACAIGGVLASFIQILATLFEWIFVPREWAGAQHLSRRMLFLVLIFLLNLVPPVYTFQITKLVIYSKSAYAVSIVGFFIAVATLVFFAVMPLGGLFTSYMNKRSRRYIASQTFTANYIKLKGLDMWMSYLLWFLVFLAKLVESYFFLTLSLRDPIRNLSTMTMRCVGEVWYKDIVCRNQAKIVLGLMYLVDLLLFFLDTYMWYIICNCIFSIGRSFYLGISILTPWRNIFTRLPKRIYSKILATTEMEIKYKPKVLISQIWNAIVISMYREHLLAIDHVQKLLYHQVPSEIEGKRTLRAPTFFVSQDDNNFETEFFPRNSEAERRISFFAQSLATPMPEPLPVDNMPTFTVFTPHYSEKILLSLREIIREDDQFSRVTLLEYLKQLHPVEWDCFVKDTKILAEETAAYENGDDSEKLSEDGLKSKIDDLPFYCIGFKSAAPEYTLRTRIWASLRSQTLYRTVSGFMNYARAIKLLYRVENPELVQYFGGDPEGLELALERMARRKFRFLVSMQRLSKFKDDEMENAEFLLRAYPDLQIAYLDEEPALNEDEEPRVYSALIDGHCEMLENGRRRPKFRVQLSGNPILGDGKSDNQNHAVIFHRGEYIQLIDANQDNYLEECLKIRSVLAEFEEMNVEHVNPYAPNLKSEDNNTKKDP

Clavispora lusitaniae = assay: Antifungal activity against wild type Candida lusitaniae MY1396 assessed as growth inhibition after 24 hrs by NCCLS broth microdilution method; type: functional; conditions: MY1396, 24 h; for MIC: read-out: MIC100
Candida albicans [7] = assay: Antifungal activity against wild type Candida albicans CAI4 assessed as growth inhibition after 24 hrs by NCCLS broth microdilution method; type: functional; conditions: CAI4, 24 h; for MIC: read-out: MIC100
Cryptococcus neoformans = assay: Antifungal activity against capsular wild type Cryptococcus neoformans MY2061 assessed as growth inhibition after 24 hrs by NCCLS broth microdilution method; type: functional; conditions: MY2061, 24 h, read-out: MIC100

| SMILES | MIC80 [1] [µg/mL] | MIC [1] [µg/mL] | MIC (Candida albicans [2]) [µg/mL] | MIC80 (Candida albicans [3]) [µg/mL] | MIC (Candida albicans [3]) [µg/mL] | MIC (Escherichia coli) [µg/mL] | MIC (Staphylococcus aureus) [µg/mL] | MIC80 (Candida albicans [4]) [µg/mL] | MIC (Candida albicans [4]) [µg/mL] | MIC80 (Aspergillus fumigatus) [µg/mL] | minimal effective concentration (Aspergillus fumigatus) [µg/mL] | ED90 (Candida albicans [5]) [mg/kg/day] | ED99 (Candida albicans [5]) [mg/kg/day] | MIC80 (Pichia kudriavzevii) [µg/mL] | MIC (Pichia kudriavzevii) [µg/mL] | MIC (Nakaseomyces glabratus) [µg/mL] | MIC80 (Candida albicans [6]) [µg/mL] | MIC (Candida albicans [6]) [µg/mL] | MIC80 (Candida parapsilosis) [µg/mL] | MIC (Candida parapsilosis) [µg/mL] | further results |
| --- | --- | --- | --- | --- | --- | --- | --- | --- | --- | --- | --- | --- | --- | --- | --- | --- | --- | --- | --- | --- | --- |
| CCCCCOc1ccc(-c2cc(-c3ccc(C(=O)N[C@H]4C[C@@H](O)[C@@H](O)NC(=O)[C@@H]5[C@@H](O)[C@@H](C)CN5C(=O)[C@H]([C@H](O)CC(N)=O)NC(=O)[C@H]([C@H](O)[C@@H](O)c5ccc(O)cc5)NC(=O)[C@@H]5C[C@@H](O)CN5C(=O)[C@H]([C@@H](C)O)NC4=O)cc3)no2)cc1 (X1-[Orn(4R-OH,5R-OH)]T[Hyp][hTyr(3S-OH,4S-OH)][Gln(3R-OH)][Pro(3S-OH,4S-Me)]; lactam 1-C) | 0.5 (≈ 0.426 µM) | 2 (≈ 1.7 µM) | 4 (≈ 3.41 µM) | < 0.03 | 0.06 (≈ 0.0511 µM) | > 32 | > 32 | 0.5 (≈ 0.426 µM) | 2 (≈ 1.7 µM) | < 0.03 | > 32 | 0.12 | 0.82 | 0.125 (≈ 0.106 µM) | 1 (≈ 0.852 µM) | 0.25 (≈ 0.213 µM) | 0.25 | 1 | 2 (≈ 1.7 µM) | 32 (≈ 27.3 µM) | MIC80 (Candida albicans [2]): 2 µg/mL (≈ 1.7 µM); MIC80 (Nakaseomyces glabratus): 0.06 µg/mL (≈ 0.0511 µM); IC50 (Beta-1,3-glucan synthase): 0.035 µM; MIC80 (Clavispora lusitaniae): < 0.03 µg/mL; MIC (Clavispora lusitaniae): 0.125 µg/mL (≈ 0.106 µM); MIC80 (Candida albicans [7]): < 0.03 µg/mL; MIC (Candida albicans [7]): 0.06 µg/mL (≈ 0.0511 µM); MIC (Cryptococcus neoformans): > 32 µg/mL |
| CC[C@H](C)C[C@H](C)CCCCCCCCC(=O)N[C@H]1C[C@@H](O)[C@@H](O)NC(=O)[C@@H]2[C@@H](O)CCN2C(=O)[C@H]([C@H](O)CC(N)=O)NC(=O)[C@H]([C@H](O)[C@@H](O)c2ccc(O)cc2)NC(=O)[C@@H]2C[C@@H](O)CN2C(=O)[C@H]([C@@H](C)O)NC1=O ({Tetradecanoyl(10R,12S-Me2)}-[Orn(4R-OH,5R-OH)]T[Hyp][hTyr(3S-OH,4S-OH)][Gln(3R-OH)][Pro(3S-OH)]; lactam 1-C) | 4 (≈ 3.76 µM) | > 32 | > 32 | 0.125 (≈ 0.117 µM) | 0.5 (≈ 0.469 µM) | > 32 | > 32 | 16 (≈ 15 µM) | 32 (≈ 30 µM) | 4 (≈ 3.76 µM) | > 32 | 2.71 | 13 | 8 (≈ 7.51 µM) | 32 (≈ 30 µM) | 4 (≈ 3.76 µM) | 16 | 32 | 8 (≈ 7.51 µM) | > 32 | MIC80 (Clavispora lusitaniae): 1 µg/mL (≈ 0.939 µM); MIC (Clavispora lusitaniae): 4 µg/mL (≈ 3.76 µM); MIC80 (Candida albicans [7]): < 0.03 µg/mL; MIC (Candida albicans [7]): 0.5 µg/mL (≈ 0.469 µM); MIC (Cryptococcus neoformans): > 32 µg/mL |
| CC[C@H](C)C[C@H](C)CCCCCCCCC(=O)N[C@H]1C[C@@H](O)[C@@H](O)NC(=O)[C@@H]2[C@@H](O)[C@@H](C)CN2C(=O)[C@H]([C@H](O)CC(N)=O)NC(=O)[C@H]([C@H](O)[C@@H](O)c2ccc(O)cc2)NC(=O)[C@@H]2C[C@@H](O)CN2C(=O)[C@H]([C@@H](C)O)NC1=O ({Tetradecanoyl(10R,12S-Me2)}-[Orn(4R-OH,5R-OH)]T[Hyp][hTyr(3S-OH,4S-OH)][Gln(3R-OH)][Pro(3S-OH,4S-Me)]; lactam 1-C) | 4 (≈ 3.71 µM) | 32 (≈ 29.7 µM) | > 32 | 0.125 (≈ 0.116 µM) | 0.5 (≈ 0.463 µM) | > 32 | > 32 | 8 (≈ 7.41 µM) | 16 (≈ 14.8 µM) | 4 (≈ 3.71 µM) | > 32 | 1.15 | 6.77 | 4 (≈ 3.71 µM) | 8 (≈ 7.41 µM) | 4 (≈ 3.71 µM) | 16 | 32 | 8 (≈ 7.41 µM) | > 32 | MIC80 (Candida albicans [2]): 32 µg/mL (≈ 29.7 µM); MIC80 (Nakaseomyces glabratus): 2 µg/mL (≈ 1.85 µM); IC50 (Beta-1,3-glucan synthase): 0.0176 µM; MIC80 (Clavispora lusitaniae): 1 µg/mL (≈ 0.927 µM); MIC (Clavispora lusitaniae): 4 µg/mL (≈ 3.71 µM); MIC80 (Candida albicans [7]): < 0.03 µg/mL; MIC (Candida albicans [7]): 0.5 µg/mL (≈ 0.463 µM); MIC (Cryptococcus neoformans): > 32 µg/mL |
